What is called IC50 is the concentration that inhibits the measured activity by half. By half-life is commonly meant the time needed for the level to fall by half in the phase considered. A high value points to slow decline.

Several values for one entry are separate records, joined by “and”; a condition that tells them apart may be missing. Equal entries are not always repeated. Numbered stars: 1 amine (or outer) side, 2 acyl side, 3 side chain; on linkers, the order of the positions; unused ones are H or OH. Square brackets hold non-standard residues; d marks the D form. Peptide text beside a SMILES is read from it. * marks the point of attachment. azaPhe = O=C(N(Cc1ccccc1)N[*:1])[*:2]; azaPro = O=C(N1CCCN1[*:1])[*:2]; X1 = N=C(N)NCCCN(N)C(=O)*; azaGly = NNC(=O)O Some results are limits rather than exact numbers.

One data set deals with T1, HMGB1/MD-2 binding (Homo sapiens, UniProt Q9Y6Y9).
T1 construct: purchased R&D Systems 1787-MD
T1 sequence (Q9Y6Y9 17-160 limits assumed): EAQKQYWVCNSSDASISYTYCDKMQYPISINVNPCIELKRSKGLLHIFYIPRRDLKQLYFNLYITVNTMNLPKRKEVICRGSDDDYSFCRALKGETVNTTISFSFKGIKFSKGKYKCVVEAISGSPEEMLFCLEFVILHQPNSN
Put plainly: SPR HMGB1/MD-2 binding inhibition assay. The conditions noted are these: immobilized disulfide HMGB1, MD-2 0.25 µM.

A short description of another data set: in vitro. The conditions noted are these: male, C57BL/6J, mouse, blood.
For data set [1], the target named is T2, Human B2 (h) receptor (B2R) (Homo sapiens, UniProt P30411).
T2 construct: host or cells: CHO cells
T2 sequence (P30411 1-391): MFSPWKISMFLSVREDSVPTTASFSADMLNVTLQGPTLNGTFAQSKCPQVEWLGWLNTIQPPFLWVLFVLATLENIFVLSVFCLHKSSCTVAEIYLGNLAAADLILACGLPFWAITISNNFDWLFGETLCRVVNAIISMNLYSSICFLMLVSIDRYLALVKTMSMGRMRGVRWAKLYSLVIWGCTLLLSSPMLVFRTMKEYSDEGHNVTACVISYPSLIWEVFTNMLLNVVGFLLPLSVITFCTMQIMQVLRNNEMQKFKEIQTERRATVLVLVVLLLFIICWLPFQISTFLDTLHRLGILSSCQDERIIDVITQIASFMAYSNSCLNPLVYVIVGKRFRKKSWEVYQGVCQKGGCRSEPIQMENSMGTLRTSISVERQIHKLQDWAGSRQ
Put plainly: Human B2 (h) (agonist radioligand) receptor binding assay, [3H]bradykinin displacement. To be noted: Eurofins Cerep report. The source says: The data was collected by CRO Eurofins Cerep (France) and the result is attached as an additional data file. B2R radioligand agonist binding displacement assay for determination of IC-50.
Test compounds (FI-U / [azaP2, azaF8-BK (70), FI-2V / azaF8-BK (68), and FI-8G / azaP2-BK (63)) were supplied to Eurofins in a blinded manner and run at five concentrations to determine the IC-50’s. Standard company control test compounds were used for assay validation. Experimental assays achieved inhibition of more than 50% and were considered to represent significant effects of the test compounds.
(B2(h)) was used as the agonist for B2R receptor binding. The results are expressed as a percent of control specific binding (measured specific binding /control specific binding)*100, and as a percent inhibition of control specific binding (100 minus (measured specific binding/ control specific binding)*100) obtained in the presence of the test compounds. The IC50 values (concentration causing a half-maximal inhibition of control specific binding) and Hill coefficients (nH) were determined by non-linear regression analysis of the competition curves generated with mean replicate values using Hill equation curve fitting Y=D+[ A-D / 1+(C/C50) nH] where Y = specific binding, A = left asymptote of the curve, D = right asymptote of the curve, C = compound concentration, C50 = IC50, and nH = slope factor. This analysis was performed using software developed at Cerep (Hill software) and validated by comparison with data generated by the commercial software SigmaPlot® 4.0 for […]
The inhibition constants (Ki) were calculated using the Cheng Prusoff equation. Ki=IC50/(1+L/Kd) where L = concentration of radioligand in the assay, and Kd = affinity of the radioligand for the receptor. A scatchard plot is used to determine the Kd. […]
9.1. Experimental Conditions
9.1.1. In Vitro Pharmacology: Binding Assays
Assay Source Ligand Conc. Kd Non Specific Incubation Detection Bibl.
(agonist recombinant (1 µM) RT counting
9.2. Analysis and expression of results
9.2.1. In Vitro Pharmacology: Binding Assays
The results are expressed as a percent of control specific binding measured specific binding *100 […]
and as a percent inhibition of control specific binding
100-( measured specific binding *100) […]
obtained in the presence of the test compounds.
The IC50 values (concentration causing a half-maximal inhibition of control specific binding) and Hill coefficients (nH) were determined by non-linear regression analysis of the competition curves generated with mean replicate values using Hill equation […]
where Y = specific binding, A = left asymptote of the curve, D = right asymptote of the curve, C = compound concentration, C50 = IC50, and nH = slope factor. This analysis was performed using software developed at Cerep (Hill software) and validated by […]
The inhibition constants (Ki ) were calculated using the Cheng Prusoff equation where L = concentration of radioligand in the assay, and KD = affinity of the radioligand for the receptor. A scatchard plot is used to […]

`NC(=O)[C@H](CCC(=O)O)NC(=O)[C@H](CO)NC(=O)[C@H](CO)NC(=O)N(N)Cc1ccccc1` [Compound 52, azaF^1SSE-NH2] returned a 50% inhibitory concentration (IC50) on HMGB1/MD-2 binding of 0.249 µM. This compound gave a half-life in the data set “in vitro” greater than 120 min.

`NC(=O)N(CCC(=O)O)NC(=O)[C@H](CO)NC(=O)[C@H](CO)NC(=O)[C@@H](N)Cc1ccccc1` [Compound 53, FSSazaE^4-NH2] had an IC50 at HMGB1/MD-2 binding of 0.397 µM. In the data set “in vitro” (Ex-vivo stability t 1/2), this compound registered a half-life of 2.6 ± 0.11 min.

Take `NN(Cc1ccccc1)C(=O)N[C@@H](CO)C(=O)N[C@@H](CO)C(=O)N[C@@H](CCC(=O)O)C(=O)O` [Compound 54, azaF^1SSE-OH]: the concentration for half-maximal inhibition (IC50) on HMGB1/MD-2 binding is 0.127 µM. Besides, the half-life in the data set “in vitro” is greater than 120 min.

Regarding `NC(=O)CC[C@H](NC(=O)[C@H](CO)NC(=O)[C@H](CO)NC(=O)N(N)Cc1ccccc1)C(=O)O` [Compound 55, azaF^1SSQ-OH], at HMGB1/MD-2 binding, the IC50 was determined as 0.159 µM. Moreover, the half-life in the data set “in vitro” amounted to 24.4 ± 1.6 min.

On HMGB1/MD-2 binding, `NC(=O)CC[C@H](NC(=O)[C@H](CO)NC(=O)[C@H](CO)NC(=O)N(N)Cc1ccccc1)C(N)=O` [Compound 56, azaF^1SSQ-NH2] came in with an IC50 of 0.349 µM. The compound further registered a half-life in the data set “in vitro” greater than 120 min.

In “in vitro”, `N=C(N)NCCC[C@H](NC(=O)[C@H](Cc1ccccc1)NC(=O)[C@@H]1CCCN1C(=O)[C@H](CO)NC(=O)[C@H](Cc1ccccc1)NC(=O)CNC(=O)[C@@H]1CCCN1C(=O)[C@@H]1CCCN1C(=O)N(N)CCCNC(=N)N)C(=O)O` [Compound 62] (X1-PPGFSPFR-OH) had a half-life of 2.46 ± 0.05 min.

`N=C(N)NCCC[C@H](NC(=O)[C@H](Cc1ccccc1)NC(=O)[C@@H]1CCCN1C(=O)[C@H](CO)NC(=O)[C@H](Cc1ccccc1)NC(=O)CNC(=O)N1CCCN1C(=O)[C@@H]1CCCN1C(=O)[C@@H](N)CCCNC(=N)N)C(=O)O` [Compound 64, RPazaP^3GFSPFR] gave a half-life in the data set “in vitro” of 2.63 ± 0.25 min.

In the data set “in vitro”, `N=C(N)NCCC[C@H](NC(=O)[C@H](Cc1ccccc1)NC(=O)[C@@H]1CCCN1C(=O)[C@H](CO)NC(=O)[C@H](Cc1ccccc1)NC(=O)NNC(=O)[C@@H]1CCCN1C(=O)[C@@H]1CCCN1C(=O)[C@@H](N)CCCNC(=N)N)C(=O)O` [Compound 65, RPPazaG^4FSPFR] (H-RPP[azaGly]FSPFR-OH; N-terminus and C-terminus assumed) showed a half-life of 4.33 ± 1.3 min.

Compound `N=C(N)NCCC[C@H](NC(=O)[C@H](Cc1ccccc1)NC(=O)[C@@H]1CCCN1C(=O)[C@H](CO)NC(=O)N(Cc1ccccc1)NC(=O)CNC(=O)[C@@H]1CCCN1C(=O)[C@@H]1CCCN1C(=O)[C@@H](N)CCCNC(=N)N)C(=O)O` [Compound 66, RPPGazaF^5SPFR] (H-RPPG[azaPhe]SPFR-OH; N-terminus and C-terminus assumed) returned a half-life in “in vitro” of 14.7 ± 1.6 min.

Compound `N=C(N)NCCC[C@H](NC(=O)[C@H](Cc1ccccc1)NC(=O)N1CCCN1C(=O)[C@H](CO)NC(=O)[C@H](Cc1ccccc1)NC(=O)CNC(=O)[C@@H]1CCCN1C(=O)[C@@H]1CCCN1C(=O)[C@@H](N)CCCNC(=N)N)C(=O)O` [Compound 67, RPPGFSazaP^7FR] (H-RPPGFS[azaPro]FR-OH) came in with a half-life in the data set “in vitro” of 2.38 ± 0.03 min.

In “in vitro”, `N=C(N)NCCC[C@H](N)C(=O)N1CCC[C@H]1C(=O)N1CCC[C@H]1C(=O)NCC(=O)N[C@@H](Cc1ccccc1)C(=O)N[C@@H](CO)C(=O)N1CCC[C@H]1C(=O)N[C@@H](Cc1ccccc1)C(=O)NN(CCCNC(=N)N)C(=O)O` [Compound 69] came in with a half-life of 42.6 ± 0.8 min.

Regarding `N=C(N)NCCC[C@H](NC(=O)N(Cc1ccccc1)NC(=O)[C@@H]1CCCN1C(=O)[C@H](CO)NC(=O)N(Cc1ccccc1)NC(=O)CNC(=O)[C@@H]1CCCN1C(=O)[C@@H]1CCCN1C(=O)[C@@H](N)CCCNC(=N)N)C(=O)O` [Compound 71, RPPGazaF^5SPazaF^8R] (H-RPPG[azaPhe]SP[azaPhe]R-OH; N-terminus and C-terminus assumed), the half-life in the data set “in vitro” stood at 106 ± 1.8 min.

Consider `N=C(N)NCCC[C@@H](N)C(=O)N[C@@H](CCCNC(=N)N)C(=O)N1CCC[C@H]1C(=O)N1C[C@H](O)C[C@H]1C(=O)NCC(=O)N[C@@H](Cc1ccccc1)C(=O)N[C@@H](CO)C(=O)N[C@H](Cc1ccccc1)C(=O)N[C@@H](Cc1ccccc1)C(=O)N[C@@H](CCCNC(=N)N)C(=O)O` [NPC 567, reference compound], for which the “nH (Hill coefficient)” value in data set [1] is 0.6 and 0.9.

The record behind these values is paper PMC9705435, “Thiocarbazate building blocks enable the construction of azapeptides for rapid development of therapeutic candidates” (Nature Communications, 2022).
